# Values quoted from earlier work in patent US6063383A, “Pharmaceutical suppository composites for fever and influenza and method of producing the composites” (priority 1999, dated 2000).
# Entries after “also recorded” stand apart in the source; their conditions may differ. Like-named read-outs stand apart in the source and are kept apart here.
# What was measured:
# [1] = system: twisting reaction of small rats caused by acetic acid; conditions: into the stomach
# [2] = system: blood capillary permeability; conditions: into the stomach
# nephrosis = conditions: intra-abdominal
# [3] = system: heart separated from frogs, wister rats, or rabbits
# [4] = system: heart failure; left ventricles
# sleeping time = conditions: sub-threshold pento-barbital sodium
# [5] = system: post-synaptic GABA receptors
# pain = conditions: oral intake or injection
# [6] = system: hemorrhagic heart failure
# blood platelets = conditions: ADP, arachidonic acids and collagen
# [7] = system: TXA; prostate glandis (PGI)
# [8] = system: essential hypertension and critical hypertension; conditions: in vivo
# blood cholesterol = conditions: in vivo
# [9] = system: liver injury caused by carbon tetrachloride
# small rats [10] = system: small rats
# small rats [11] = conditions: rat, in vivo
# granuloma = conditions: for anti-granulomatous action: cotton granulomatous method; for anti-osmosis: granulationimplantation
# small rats [12] = system: small rats; remark: listed apart in the source
# [13] = system: smooth muscles of the gall bladder and the dilator in the opening of the bile duct
# [14] = infusing to the stomach of small rats
compound,measurement,setting,value
"COc1cc(CC2(O)C(=O)OCC2Cc2ccc(OC)c(OC)c2)ccc1O (single isomer, unassigned) [trachelogenin]",IC50,colon,1100 nM
same,antagonistic action on calcium,colon,noticeable antagonistic action on calcium
same,effect on contraction,colon; high concentration of potassium,inhibitory effect on the contraction
same,pA2,"colon; rat, colon",6.60
same,ratio to verapamil,colon; versus verapamil,one-sixth
CCCCCC(O)CC (stereo not drawn) [3-octanol],inflammation action,inflammation,have inflammation action
CC1CCC(C(C)C)C(O)C1 (stereo not drawn) [Methol],inhibitory rate on twisting reaction,[1],41.3%
CC(C)=C1CC[C@@H](C)CC1=O [Pulegone],inhibitory rate on abdominal osmosis,[2],39.8%
"O=C1C[C@@H]2OCC=C3CN4CC[C@]56c7ccccc7N1[C@H]5[C@H]2[C@H]3C[C@H]46 [Strychnine, reference compound]",antagonism of pyrexia,"hypothalamus; rat, in vivo",can antagonize pyrexia
COc1cc(C[C@H]2C(=O)OC[C@@H]2Cc2ccc(OC)c(OC)c2)ccc1O [arctigenin],excretion of proteins in urine,nephrosis,can inhibit the increase in the excretion of proteins in urine
same,serum biochemical index,nephrosis,improve the serum biochemical index
C=CC1=C(C)/C(=C/c2[nH]c(Cc3[nH]c(/C=C4\NC(=O)C(C)=C4C=C)c(C)c3CCC(=O)O)c(CCC(=O)O)c2C)NC1=O [bilirubin],cardiac tonic effect,[3],cardiac tonic effect
same,contracting effect on aortic arteries,aortic arteries,weaker contracting effect
C[C@H](CCC(=O)O)[C@H]1CC[C@H]2[C@@H]3[C@H](O)C[C@@H]4C[C@H](O)CC[C@]4(C)[C@H]3C[C@H](O)[C@]12C [calcium cholic acid],blood pressure lowering effect,"hypertension; oral, 100 mg/kg",significant and long-lasting blood pressure lowering effect
same,duration of hypotensive effect,"hypertension; oral, 100 mg/kg",one
C[C@H](CCC(=O)O)[C@H]1CC[C@H]2[C@@H]3[C@H](O)C[C@@H]4C[C@H](O)CC[C@]4(C)[C@H]3C[C@H](O)[C@]12C [cholic acid],cardiac tonic effect,[3],cardiac tonic effect
same,contracting effect on aortic arteries,aortic arteries,contracting effect
"COc1ccc([C@@H]2Sc3ccccc3N(CCN(C)C)C(=O)[C@@H]2OC(C)=O)cc1 [diltiazem, reference compound]",output of left ventricles,[4]; 1 mg/kg,the output of the left ventricles reduces
"CC(C)NCC(O)COc1cccc2ccccc12 (stereo not drawn) [propranolol, reference compound]",output of left ventricles,[4]; 1 mg/kg,the output of the left ventricles reduces
NCCS(=O)(=O)O [taurine],hypnotizing action,sleeping time,increase the hypnotizing action
same,electrical activities,cerebral cortical nerves,can inhibit both the spontaneous and induced electrical activities and produce hyperpolarization
same,inhibitory effect on the spinal cord and brain stem with strychnine,cerebral cortical nerves; strychnine,antagonized by strychnine
same,affinity for post-synaptic GABA receptors,[5],no significant affinity
same,replacement of GABA effects,[5]; central nervous system,cannot replace the inhibitory effect and modulating effect of GABA
same,effect on convulsion,"convulsion; pento-tetra-amine, cepharathin, carbon monoxide, aluminum oxide, 4-amino pyride, penicillin, oxygen, low calcium, sound, L-uric acid",inhibitory effect
same,latency period of convulsion,convulsion; strychnine,can significantly extend the latency period
same,body temperature,hypothalamus; injection into the hypothalamus,can increase the body temperature
same,body temperature,hypothalamus; large dosage,can reduce the body temperature
same,effect on PGE1 and PGE2 mechanism,heat-induced pyrogenesis; E1 (PGE1) and E2 (PGE2),so such effect occurs
same,inhibition of pyrogenesis,"heat-induced pyrogenesis; endotoxin and white blood cells, injection into the cerebral ventricles",can inhibit the heat-induced pyrogenesis of endotoxin and white blood cells
same,pain relief,pain,does not produce noticeable pain relief
same,hypotensive effect,hypertension; essential or deoxy-cortisone acetate-induced hypertension,hypotensive effect
same,output of left ventricles,[4]; after 1 mg/kg propranolol or diltiazem,can improve the output of left ventricles
same,life expectancy,[4]; long-term oral,extends the life expectancy of rabbits
same,prevention of heart failure,"[4]; long-term oral, incomplete opening and closing of aortic valves",can prevent the accelerated hemorrhagic heart failure
same,normal rate and final diastolic pressure of left ventricles,"[4]; rabbit, in vivo",does not affect the normal rate of rabbits and the final diastolic pressure of left ventricles
same,output and systolic pressure of the left ventricles,"[4]; rabbit, in vivo",significantly increase the output and systolic pressure of the left ventricles
same,heart-failure mortality rate,[4]; treatment group,significantly reduces with a lower heart pulse
same,treatment effect,"[6]; 6 g daily, four weeks",noticeable treatment effect
same,action and metabolism of cardiac tonic,[6]; catecholamines and digitalis,does not affect the action and metabolism of cardiac tonic
same,agglomeration of blood platelets,blood platelets,dosage-dependence relationship; also recorded: inhibitory action on the agglomeration of blood platelets
same,formation of TXA by arachidonic acids,[7],no effect on the formation of TXA by arachidonic acids
same,formation of TXA by collagen,[7],can inhibit the formation of TXA by collagen
same,formation of PGI,TXA,no noticeable effect
same,formation of thrombi,formation of thrombi,noticeable inhibition on the formation of thrombi
same,effect on cell membrane,myocardia,stabilizing effect on the cell membrane
same,formation of glutathione,myocardia,increase the formation of glutathione
same,myocardial blood deficiency and damage,myocardia,can significantly inhibit myocardial blood deficiency and damage
same,myocardial injury by hyperpolarization of calcium,myocardia,antagonize the myocardial injury
same,oxygen free radicals,myocardia,reduce the formation of oxygen free radicals; also recorded: increases the excretion of oxygen free radicals
same,effect on Ca^2+ in the myocardia,cardiac arrhythmias,biphasic moderation
same,prevention of cardiac arrhythmias,cardiac arrhythmias,can prevent cardiac arrhythmias
same,anti-arrhythmic effect,"cardiac arrhythmias; used together with quinidina, small rats",better anti-arrhythmic effect
same,effects in treating hypertension,[8],satisfactory
same,atherosclerosis,blood cholesterol,prevent atherosclerosis
same,blood cholesterol,blood cholesterol,reduce blood cholesterol
same,high-density lipoproteins,blood cholesterol,increase high-density lipoproteins
same,protection for liver injury,[9]; in vivo,protection for the liver injury
same,rise of ALT,[9]; in vivo,inhibits the rise of ALT
same,repairing of liver cells,[9]; pathological sectioning,can promote the repairing of liver cells and the prevention of lipohepatitis
same,LD50,small rats [10]; intravenous,330 mg/kg
same,pathological changes,small rats [11],no pathological changes are found
C=C1CCC2CC1C2(C)C (stereo not drawn) [β-pipene],inflammation action,inflammation,have inflammation action
bupleurum saponin-a,anti-granulomatous action,granuloma,anti-granulomatous action
same,anti-osmosis,granuloma,anti-osmosis
same,inhibition on over-activity,"small rats [12]; mounting experiments, conditional aversion",noticeable inhibition on the over-activity
same,tranquilizing effect,"small rats [12]; rat, in vivo",significant tranquilizing effect
same,"coughing-relieving action, dose relation","coughing; intra-abdominal, 100~200 mg/kg, wister rats, 200 mg/kg",most noticeable coughing-relieving action; also recorded: related to its dosage
same,action of relieving coughing,"coughing; rat, in vivo",stronger action of relieving coughing
bupleurum saponin-d,anti-granulomatous action,granuloma,anti-granulomatous action
same,anti-osmosis,granuloma,anti-osmosis
chloretic acid,LD50,small rats [10]; [14],1520 mg/kg
deoxy-chloretic acid,effect on bile duct / excretion of bile,[13],can relax the dilators of the bile duct
same,LD50,small rats [10]; [14],1060 mg/kg
same,LD50,small rats [10]; intravenous,150 mg/kg
